Literature values as cited in patent publication US20230393151A1, “Precision Targeted Retromer Therapeutics for the Treatment of Neurodegenerative Diseases and Disorders” (The Trustees of Columbia University in the City of New York, priority 2020, published 2023).

Tests used:
[1] = target: purified, reconstituted heterotrimeric complex (retromer) (Homo sapiens, UniProt Q96QK1+Q9UBQ0); conditions: incubated with complex at various concentrations; Mecozzi et al. 2014
[2] = target: T1, VPS35 and VPS26 (Mus musculus, UniProt Q9EQH3+Q9QZ88); conditions: cultured primary neurons; Mecozzi et al. 2014
T1 construct: endogenous in cells

Thermal stability of retromer complex [1]: improved thermal stability significantly
VPS35 and VPS26 protein levels [2]: increased
SMILES: [H]/N=C(\N)SCc1ccc(CS/C(N)=N/[H])s1 [R55]
